Source: US8242054B2, “Plant growth regulator composition” (Snow Brand Seed Co., Ltd., priority 2008, dated 2012)

Experiments:
[1] = test system: adzuki bean section; assay: adzuki bean root promotion assay (section immersion treatment, adventitious roots counted); type: in vivo; settings: for Relative value (%): 0/0 ppm group = 100; for Ratio to untreated group (%): untreated group = 100
Experimental: An aqueous solution of DL-phenyllactic acid (Sigma-Aldrich Japan) and L-tryptophan (Wako Pure Chemical Industries, Ltd.) was prepared so that the total concentration of the compounds was 400 ppm and adjusted to pH 7 with hydrochloric acid, and the solution was subjected to an adzuki bean root promotion assay (Itagaki et al. 2003. Biological activities and structure-activity relationship of substitution compounds of N-[2-(3-indolyl)ethyl]succinamic acid and N-[2-(1-naphthyl)ethyl]succinamic acid, derived from a new category of root-promoting substance, N-(phenethyl) succinamic acid analogs. Plant Soil 255: 67-75). The base of an adzuki section was immersed in the test solution for 72 hours, and adventitious roots generated 7 days after immersion were counted. The repetition number was 5.
To study the cooperation effect of phenyllactic acid and aromatic amino acids other than L-tryptophan, each of 1 mM of DL-phenyllactic acid (Sigma-Aldrich Japan), L-tryptophan (Wako Pure Chemical Industries, Ltd.), L-phenylalanine (Wako Pure Chemical Industries, Ltd.), and L-tyrosine (Wako Pure Chemical Industries, Ltd.), and aqueous solutions obtained by adding the amino acids to DL-phenyllactic acid were prepared, and subjected to the adzuki bean root promotion assay in the same way as in Example 1.
To compare effects of combinations of tryptophan enantiomers and phenyllactic acid enantiomers, aqueous solutions of 400 ppm of L-tryptophan, D-tryptophan (Wako Pure Chemical Industries, Ltd.), L-phenyllactic acid (Sigma-Aldrich Japan), and D-phenyllactic acid (Sigma-Aldrich Japan) were prepared. Separately, aqueous solutions of 200 ppm of each of the tryptophan enantiomers and 200 ppm of each of the […] enantiomers were prepared and subjected to the adzuki bean root promotion assay in the same way as in Example 1. […]

[2] = test system: adzuki bean section; assay: as above; type: in vivo; settings: for Relative value (%): 0/0 ppm group = 100; for Number of roots: 72 h immersion, counted 7 days after immersion
[3] = test system: plants; settings: background art; cited from earlier work
[4] = Table 4: each component present at 1 mM
[5] = Table 3: L-tryptophan 0 ppm, DL-phenyllactic acid 20 ppm
[6] = Table 5: single enantiomer 400 ppm
[7] = Table 3: L-tryptophan 1200 ppm, DL-phenyllactic acid 0 ppm

O=C(O)C(O)Cc1ccccc1 (racemic) [DL-phenyllactic acid]
root promoting effect (in words) ([1]; Table 1, only DL-phenyllactic acid): slight root promoting effect
Relative value (%) ([1]; Table 1: L-tryptophan 0 ppm, DL-phenyllactic acid 400 ppm): 137%
Number of roots ([1]; Table 1: L-tryptophan 0 ppm, DL-phenyllactic acid 400 ppm, 72 h immersion, counted 7 days after immersion): 22.4
Relative value (%) ([1]; Table 2: L-tryptophan 0 ppm, DL-phenyllactic acid 400 ppm): 268%
Number of roots ([1]; Table 2: L-tryptophan 0 ppm, DL-phenyllactic acid 400 ppm, 72 h immersion, counted 7 days after immersion): 32.2
Number of roots [1, 4]: 18.8
Ratio to group treated with only DL-phenyllactic acid (%) ([1]; Table 4: each component present at 1 mM, 1 mM DL-phenyllactic acid only = 100): 100%
Ratio to untreated group (%) [1, 4]: 132%
Relative value (%) [2, 5]: 107%
Number of roots [2, 5]: 11.6

O=C(O)[C@@H](O)Cc1ccccc1 [D-phenyllactic acid]
Number of roots [1, 6]: 27.6
Relative value (%) [1, 6]: 192%

N[C@H](Cc1c[nH]c2ccccc12)C(=O)O [D-tryptophan]
Number of roots [1, 6]: 24.2
Relative value (%) [1, 6]: 168%

N[C@@H](Cc1ccccc1)C(=O)O [L-phenylalanine]
Number of roots [1, 4]: 16.6
Ratio to untreated group (%) [1, 4]: 117%

O=C(O)[C@@H](O)Cc1ccccc1 [L-phenyllactic acid]
Number of roots [1, 6]: 19.4
Relative value (%) [1, 6]: 135%

N[C@@H](Cc1c[nH]c2ccccc12)C(=O)O [L-tryptophan]
Relative value (%) ([1]; Table 1: L-tryptophan 400 ppm, DL-phenyllactic acid 0 ppm): 113%
Number of roots ([1]; Table 1: L-tryptophan 400 ppm, DL-phenyllactic acid 0 ppm, 72 h immersion, counted 7 days after immersion): 18.6
Relative value (%) ([1]; Table 3: L-tryptophan 400 ppm, DL-phenyllactic acid 0 ppm): 98%
Number of roots ([1]; Table 3: L-tryptophan 400 ppm, DL-phenyllactic acid 0 ppm, 72 h immersion, counted 7 days after immersion): 10.6
Number of roots [1, 4]: 19.2
Ratio to untreated group (%) [1, 4]: 135%
Number of roots [1, 6]: 22.2
Relative value (%) [1, 6]: 154%
Relative value (%) [2, 7]: 139%
Number of roots [2, 7]: 15.0

N[C@@H](Cc1ccc(O)cc1)C(=O)O [L-tyrosine]
Number of roots [1, 4]: 13.6
Ratio to untreated group (%) [1, 4]: 96%

O=C(O)C(O)Cc1ccccc1 (stereo not shown) [phenyllactic acid, 3-phenyllactic acid]
root promoting effect on plants (in words) [3]: the effect is weak
